Experimental data taken from PMC10967822, “Antimicrobial Indole-3-Carboxamido-Polyamine Conjugates Target Bacterial Membranes and Are Antibiotic Potentiators” (Biomolecules, 2024).
≈ marks a conversion by molar mass, not a printed value. Where “and” joins values, the source holds several entries; their conditions need not be identical. Equal values may be shown once. Read-outs that look alike come from different tables or passages of the source. Marks after values point to notes of the source that are not given here. Blank lines part the entries; values can stand above or below the compound they belong to.

Tests used:
[1] = tested on: P. aeruginosa ATCC 27853; details: cited from earlier work
[2] = tested on: human red blood cells; details: cited from earlier work
[3] = tested on: C. albicans ATCC 90028; set-up: method as in Cadelis et al. [13]; details: ref Cadelis et al. [13]; cited from earlier work
[4] = tested on: A. baumannii ATCC 19606; set-up: method as in Cadelis et al. [13]; details: ref Cadelis et al. [13]; cited from earlier work
[5] = tested on: P. aeruginosa ATCC 27853; details: cited from earlier work; remark: listed apart in the source
[6] = tested on: K. pneumoniae ATCC 700603; set-up: method as in Cadelis et al. [13]; details: ref Cadelis et al. [13]; cited from earlier work
[7] = tested on: S. aureus ATCC 25923; details: ref Cadelis et al. [13]; cited from earlier work
[8] = tested on: HEK293 human embryonic kidney cells; set-up: method as in Cadelis et al. [13]; details: ref Cadelis et al. [13], read-out: Cytotoxicity IC50; cited from earlier work
[9] = tested on: MRSA ATCC 43300; set-up: method as in Cadelis et al. [13]; details: ref Cadelis et al. [13]; cited from earlier work
[10] = tested on: E. coli ATCC 25922; set-up: method as in Cadelis et al. [13]; details: ref Cadelis et al. [13]; cited from earlier work
[11] = tested on: E. coli ATCC 25922; assay: Erythromycin potentiation against E. coli; assay type: cell-based, Escherichia coli; details: erythromycin at 2 µg/mL (2.7 µM); for Erythro/Ec: concentration required to restore erythromycin activity (combination MIC): mean n = 3
Source text: (§1) These measurements were independently repeated in triplicate.

[12] = tested on: C. neoformans ATCC 208821; set-up: method as in Cadelis et al. [13]; details: ref Cadelis et al. [13]; cited from earlier work
[13] = Cytotoxicity assay (resazurin); assay type: cell-based; details: human, HEK293 cells, mean n = 2
[14] = tested on: P. aeruginosa PAO1; assay: Nitrocefin hydrolysis assay (outer membrane permeabilization); assay type: cell-based, Pseudomonas aeruginosa; details: P. aeruginosa PAO1, top dose 128 µg/mL
Procedure: Outer membrane permeabilization was measured using nitrocefin as a chromogenic substrate of periplasmic β-lactamase. A total of 10 milliliters of MH broth were inoculated with 0.1 mL of an overnight culture of PAO1 bacteria and grown at 37 °C until the OD600 reached 0.5. The remaining steps were performed at room temperature. The cells were recovered by centrifugation (4000 rpm for 20 min) and washed once in 20 mM potassium phosphate buffer (pH 7.2) containing MgCl2 (1 mM). After a second centrifugation, the pellet was resuspended and adjusted to OD600 of 0.5. Then, 50 µL of the desired compound was added to 100 µL of the cell suspension to obtain a final concentration varying from 3.9 µM to 250 µM. A total of 50 microliters of nitrocefin was then added to obtain a final concentration of 50 µg/mL. Nitrocefin hydrolysis was monitored spectrophotometrically by measuring the increase in absorbance at 490 nm. The assays were performed in 96-well plates using a M200 Pro Tecan (Tecan, Männedorf, Switzerland) spectrophotometer.

[15] = tested on: P. aeruginosa ATCC 27853; assay: Doxycycline potentiation against P. aeruginosa; assay type: cell-based, Pseudomonas aeruginosa; details: doxycycline at 2 µg/mL (4.5 µM)
Source text: as §1

[16] = tested on: S. aureus ATCC 25923; assay: Real-time growth curves, S. aureus; assay type: cell-based, Staphylococcus aureus; details: for Concentration at which bacterial growth resumed after 2 h: S. aureus ATCC 25923, real-time growth
Procedure: The solutions of the compound at the concentrations of 2, 4, and 16 µg/mL were tested each in triplicate against S. aureus ATCC 25923. Typically, in a 96-well plate were placed 10 µL of 40, 80, and 320 µg/mL stock solutions of compound, as well as 190 µL of 5 × 10^5 CFU/mL of the selected bacterial suspension in brain heart infusion (BHI) broth. Positive controls containing only 200 µL of 5 × 10^5 CFU/mL of the bacterial suspension in BHI and negative controls containing only 200 µL of BHI broth were added. The plate was incubated at 37 °C in a TECAN Spark Reader (Roche Diagnostic, Meylan, France) and the real-time bacterial growth was followed by OD590 nm measurements every 20 min for 18 h.

[17] = tested on: MRSA; assay: ATP efflux (membrane disruption), MRSA; assay type: cell-based, methicillin-resistant S. aureus; details: single dose 100 µg/mL, relative to squalamine
Procedure: (§2) A solution of the compound was prepared in twice-distilled water at a fixed concentration of 100 μg/mL. The different Gram-positive suspensions were prepared in MH II broth and were incubated at 37 °C. Then, 90 µL of each bacterial suspension was added to 10 µL of the compound solution and shaken for 20 s in the incubator at 37 °C. Subsequently, 50 µL of Luceferin–Luciferase reagent (Yelen, Marseille, France) was added to the mixture, and the luminescent signal was quantified with an Infinite M200 microplate reader (Tecan, Männedorf, Switzerland) for 6 readings spaced 30 s apart. The ATP concentration was quantified by internal sample addition. Squalamine (100 µg/mL) was used as the positive control to quantify the maximum level of ATP efflux and water as the negative control. This assay was performed in three independent experiments.

[18] = tested on: S. aureus ATCC 25923; assay: MIC, broth dilution, S. aureus; assay type: cell-based, Staphylococcus aureus
[19] = tested on: MRSA ATCC 43300; assay: MIC, broth microdilution (CO-ADD), MRSA; assay type: cell-based, methicillin-resistant S. aureus; details: Staphylococcus aureus; MRSA ATCC 43300; top dose 32 µg/mL; read-out: MIC MRSA
[20] = tested on: E. coli ATCC 25922; assay: MIC, broth dilution, E. coli; assay type: cell-based, Escherichia coli; details: Escherichia coli, ATCC25922; E. coli ATCC 25922, 18 h
[21] = tested on: P. aeruginosa PAO1; assay: Real-time growth curves, P. aeruginosa; assay type: cell-based, Pseudomonas aeruginosa
[22] = tested on: K. pneumoniae ATCC 700603; assay: MIC, broth microdilution (CO-ADD), K. pneumoniae; details: top dose 32 µg/mL
[23] = tested on: C. albicans ATCC 90028; assay: Antifungal MIC (CO-ADD), C. albicans; assay type: cell-based; details: Candida albicans, ATCC90028, top dose 32 µg/mL
Summary of the method: (§3)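 MIC for C. neoformans determined by OD570–600 following a further 3 h with resazurin (0.006% final), whereas C. albicans was read directly at OD530. Both grown static in YNB broth at 2.5 × 10^3 CFU/mL final inoculum, 35 °C for 36 h, from colonies cultured on YPD agar 3 days at 30 °C.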

[24] = tested on: S. aureus ATCC 25923; assay: ATP efflux (membrane disruption), S. aureus; assay type: cell-based, Staphylococcus aureus; details: S. aureus ATCC 25923, single dose 100 µg/mL, relative to squalamine
Procedure: as §2

[25] = tested on: P. aeruginosa ATCC 27853; assay: MIC, broth dilution, P. aeruginosa; assay type: cell-based, Pseudomonas aeruginosa; details: Pseudomonas aeruginosa, ATCC27853
[26] = tested on: A. baumannii ATCC 19606; assay: MIC, broth microdilution (CO-ADD), A. baumannii; assay type: cell-based, Acinetobacter baumannii; details: Acinetobacter baumannii, ATCC19606, top dose 32 µg/mL
[27] = tested on: C. neoformans ATCC 208821; assay: Antifungal MIC (CO-ADD), C. neoformans; assay type: cell-based; details: Cryptococcus neoformans, ATCC208821, top dose 32 µg/mL
Summary of the method: as §3

[28] = tested on: human red blood cells; assay: Hemolytic assay; assay type: cell-based; details: 10% hemolytic activity, mean n = 2
Summary of the method: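 Compounds were applied to saline-washed human red blood cells at 0.5 × 10^8 cells/mL, 37 °C, 1 h. Lysis was measured by supernatant absorbance at 405 nm, and concentrations giving 10% and 50% haemolysis were obtained by variable-slope curve fitting.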

- Erythro/Ec: concentration required to restore erythromycin activity (combination MIC) [11]: 100 µM
SMILES: O=C(NCCCNCCCCNCCCNC(=O)c1c[nH]c2ccc(Br)cc12)c1c[nH]c2ccc(Br)cc12 [Compound 3, α,ω-di-(5-bromoindole-3-carboxamido)spermine]
- Dox/Pa: concentration required to restore doxycycline activity (combination MIC) ([1]; doxycycline at 2 µg/mL (4.5 µM), P. aeruginosa ATCC 27853, ref Cadelis et al. [13]): 3.125 µM
- Dox/Pa fold-change (intrinsic MIC / combination MIC) ([1]; doxycycline at 2 µg/mL, P. aeruginosa ATCC 27853, ref Cadelis et al. [13]): 64 fold
- Hemolysis HC10 [2]: >50 ^c µM
- MIC Ca [3]: 49.5 ^i µM
- MIC Ab [4]: >50 ^i µM
- MIC Pa ([5]; ref Cadelis et al. [13]): 200 ^i µM
- MIC Kp [6]: >50 ^i µM
- MIC Sa [7]: 4.8 ^i µM
- IC50 [8]: > 50 µM
- MIC MRSA [9]: 12.4 ^i µM
- MIC Ec [10]: 200 ^i µM
- MIC Cn [12]: 12.4 ^i µM

- Dox/Pa fold-change (intrinsic MIC / combination MIC) ([15]; P. aeruginosa ATCC 27853): 21 fold
- Dox/Pa: concentration required to restore doxycycline activity (combination MIC) ([15]; P. aeruginosa ATCC 27853, mean n = 3): 3.46 µM
- MIC ([18]; S. aureus ATCC 25923, 18 h, read-out: MIC Sa): 2.2 µM
- MIC ([18]; Staphylococcus aureus, ATCC25923, S. aureus ATCC 25923, 18 h, read-out: MIC Sa): 2.2 µM
- MIC ([18]; Staphylococcus aureus, ATCC25923, read-out: MIC S. aureus (microdilution)): 2 µg/mL
- MIC [19]: ≤ 0.28 µM
- MIC [20]: 6.92 µM (≈ 4.67 µg/mL)
- MIC Kp [22]: >35 µM
- MIC [23]: > 35 µM
- MIC ([25]; P. aeruginosa ATCC 27853, 18 h, read-out: MIC Pa): 71 µM
- MIC ([25]; read-out: MIC P. aeruginosa (microdilution)): 64 µg/mL
- MIC [26]: ≤ 0.28 µM
- Erythro/Ec fold-change (intrinsic MIC / combination MIC) ([11]; E. coli): 1 fold
- Erythro/Ec: concentration required to restore erythromycin activity (combination MIC) [11]: 6.92 µM
- MIC [27]: ≤ 0.28 µM
SMILES: O=C(NCCCNCCCCCCNCCCNC(=O)c1c[nH]c2ccc(Br)cc12)c1c[nH]c2ccc(Br)cc12 [Compound 13b]
- IC50 at 20 h [13]: > 35 µM
- Outer membrane disruption (nitrocefin hydrolysis) [14]: able to disrupt the outer membrane only at the top dose
- Concentrations giving complete inhibition in real-time growth curves ([16]; S. aureus ATCC 25923, 18 h): 32 to 2 μg/mL and 35.5 to 2.2 μM
- Concentration at which bacterial growth resumed after 2 h [16]: 1 μg/mL and 1.1 μM
- ATP release (membrane disruption) [17]: more potent of the two compounds
- Concentration at which bacterial growth resumed after 4 h [21]: 35.5 μM and 32 μg/mL
- ATP release (membrane disruption) [24]: more potent of the two compounds
- Hemolysis HC10 [28]: >35 µM

SMILES: O=C(Cc1c[nH]c2ccc(Br)cc12)NCCCNCCCCCCCNCCCNC(=O)Cc1c[nH]c2ccc(Br)cc12 [Compound 19, reference compound]
- Outer membrane disruption (nitrocefin hydrolysis) [14]: inactive at all test doses
- Concentration at which bacterial growth resumed after 2 h [16]: 8.5 μM and 8 μg/mL
- ATP release (membrane disruption) [17]: noticeably less active than the positive control squalamine
- Combined MIC with doxycycline against P. aeruginosa ([1]; doxycycline potentiation): 6.6 µM
- Fold enhancement with doxycycline against P. aeruginosa ([1]; doxycycline potentiation): 18 fold
- Concentration at which bacterial growth resumed after 4 h [21]: 128 μg/mL and 135.5 μM
- MIC P. aeruginosa [5]: 100 μg/mL and 106 μM
- ATP release (membrane disruption) [24]: noticeably less active than the positive control squalamine
